Laboratory results reported in the supplement of paper PMC10307832.

Tests used:
Test in all cases: relative viability (nuclei count vs DMSO), 5 days (fraction); higher = more cells survive
TGX 221 + Pictilisib = compound: CC1=CN2C(=O)C=C(N=C2C(=C1)C(C)NC3=CC=CC=C3)N4CCOCC4 [TGX 221] + CS(=O)(=O)N1CCN(Cc2cc3nc(-c4cccc5[nH]ncc45)nc(N4CCOCC4)c3s2)CC1 [Pictilisib] (partner 1 µM)
Outline: (§1)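 For relative viability, nuclei counts in treated wells were divided by those in vehicle wells. Lung cancer cell lines had been pin-tool dosed in 1536-well plates the day after seeding and cultured for 5 days, then fixed and stained in one step (final 0.05% Triton X-100, 1% formaldehyde, 1 ug/ml Hoechst) and imaged at 4×. Doses were one drug alone or a fixed anchor-drug dose plus five library-drug doses (not always all listed) in √10 steps, and values are duplicate-plate medians.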

[1] = compound: C1=CC=C(C(=C1)C2=CC=C(C=C2)C3=CSC4=C3C(=C(C(=O)N4)C#N)O)O + Nc1nc2[nH]cc(CCc3ccc(C(=O)N[C@@H](CCC(=O)O)C(=O)O)cc3)c2c(=O)[nH]1 [Pemetrexed] (partner 0.2 µM)
Outline: as §1

TGX 221 + Foretinib = compound: CC1=CN2C(=O)C=C(N=C2C(=C1)C(C)NC3=CC=CC=C3)N4CCOCC4 [TGX 221] + COc1cc2c(Oc3ccc(NC(=O)C4(C(=O)Nc5ccc(F)cc5)CC4)cc3F)ccnc2cc1OCCCN1CCOCC1 [Foretinib] (partner 0.25 µM)
Outline: as §1

Ricolinostat + Alpelisib = compound: O=C(CCCCCCNC(=O)c1cnc(N(c2ccccc2)c2ccccc2)nc1)NO [Ricolinostat] + Cc1nc(NC(=O)N2CCC[C@H]2C(N)=O)sc1-c1ccnc(C(C)(C)C(F)(F)F)c1 [Alpelisib] (partner 2 µM)
Outline: as §1

| Cell Line | relative viability (TGX 221 + Pictilisib; first compound 0.08 µM) | relative viability (TGX 221 + Pictilisib; first compound 0.253 µM) | relative viability (TGX 221 + Pictilisib; first compound 0.8 µM) | relative viability (TGX 221 + Pictilisib; first compound 2.53 µM) | relative viability (TGX 221 + Pictilisib; first compound 8 µM) | relative viability ([1]; first compound 0.08 µM) | relative viability ([1]; first compound 0.253 µM) | relative viability ([1]; first compound 0.8 µM) | relative viability ([1]; first compound 2.53 µM) | relative viability ([1]; first compound 8 µM) | relative viability (TGX 221 + Foretinib; first compound 0.08 µM) | relative viability (TGX 221 + Foretinib; first compound 0.253 µM) | relative viability (TGX 221 + Foretinib; first compound 0.8 µM) | relative viability (TGX 221 + Foretinib; first compound 2.53 µM) | relative viability (TGX 221 + Foretinib; first compound 8 µM) | relative viability (Ricolinostat + Alpelisib; first compound 0.08 µM) | relative viability (Ricolinostat + Alpelisib; first compound 0.253 µM) | relative viability (Ricolinostat + Alpelisib; first compound 0.8 µM) | relative viability (Ricolinostat + Alpelisib; first compound 2.53 µM) |
| --- | --- | --- | --- | --- | --- | --- | --- | --- | --- | --- | --- | --- | --- | --- | --- | --- | --- | --- | --- |
| NCI-H2009 | 0.814 | 0.746 | 0.893 | 0.774 | 0.662 | 0.97 | 1.04 | 1.02 | 1.1 | 1.08 | 1.12 | 1.14 | 1.25 | 1.14 | 0.789 | 1.13 | 1.11 | 1.12 | 0.923 |
| COR-L 105 | 0.458 | 0.412 | 0.424 | 0.469 | 0.421 | 0.948 | 1.16 | 1.1 | 1.11 | 1.15 | 0.993 | 0.976 | 0.99 | 0.825 | 0.781 | 0.698 | 0.98 | 0.934 | 1.25 |
| NCI-H1993 | 0.709 | 0.886 | 0.759 | 0.864 | 0.787 | 0.585 | 0.939 | 0.551 | 0.54 | 0.497 | 0.723 | 0.787 | 0.755 | 0.71 | 0.664 | 0.619 | 0.76 | 0.711 | 0.73 |
| NCI-H1395 | 0.571 | 0.531 | 0.572 | 0.676 | 0.523 | – | 0.841 | 0.776 | 0.812 | 0.894 | 0.903 | 0.961 | 0.873 | 0.716 | 0.628 | – | 1.12 | 1.13 | 1.26 |
| SW 1573 | 0.489 | 0.458 | 0.43 | 0.461 | 0.467 | 0.61 | 0.982 | 0.788 | 0.851 | 0.728 | 0.889 | 0.881 | 0.975 | 0.822 | 0.851 | 0.506 | 0.862 | 0.751 | 0.832 |
| BEN | 0.552 | 0.519 | 0.521 | 0.503 | 0.456 | 0.694 | 0.786 | 0.761 | 0.857 | 0.761 | 0.667 | 0.58 | 0.748 | 0.624 | 0.606 | 0.951 | 0.901 | 0.978 | 0.655 |
| RERF-LC-KJ | 0.488 | 0.57 | 0.551 | 0.466 | 0.481 | 0.468 | 0.521 | 0.485 | 0.441 | 0.552 | 0.87 | 0.879 | 0.964 | 0.825 | 0.757 | 0.668 | 0.972 | 0.754 | 0.766 |
| UMC-11 | 0.742 | 0.783 | 0.787 | 0.723 | 0.831 | – | 0.577 | 0.878 | 0.83 | 0.628 | 0.934 | 0.932 | 1 | 1.06 | 1.03 | 0.882 | 1.09 | 0.961 | 0.856 |
| HOP-62 | 0.694 | 0.742 | 0.544 | 0.682 | 0.689 | 0.364 | 0.336 | 0.301 | 0.348 | 0.279 | 1.09 | 1.1 | 1.05 | 1.15 | 1.08 | 0.932 | 0.901 | 0.844 | 0.848 |
| NCI-H2023 | 0.23 | 0.244 | 0.252 | 0.215 | 0.228 | 0.188 | 0.296 | 0.368 | 0.208 | 0.323 | 0.879 | 0.584 | 0.797 | 0.724 | 0.445 | 0.503 | 0.581 | 0.614 | 0.499 |
| NCI-H596 | 0.4 | 0.439 | 0.409 | 0.389 | 0.466 | 0.532 | 0.545 | 0.544 | 0.44 | 0.488 | 0.844 | 0.928 | 0.856 | 0.894 | 0.797 | 0.429 | 0.492 | 0.446 | 0.463 |
| LOU-NH91 | 0.568 | 0.532 | 0.528 | 0.53 | 0.531 | 0.386 | 0.337 | 0.399 | 0.384 | 0.406 | 0.766 | 0.922 | 0.945 | 0.907 | 0.781 | – | 0.735 | 0.709 | 0.699 |
| COR-L23 | 0.746 | 0.713 | 0.757 | 0.771 | 0.892 | 0.222 | 0.228 | 0.212 | 0.189 | 0.19 | 0.889 | 0.912 | 1.04 | 0.964 | 0.938 | 0.651 | 0.689 | 0.571 | 0.407 |
| EPLC-272H | 0.259 | 0.295 | 0.369 | – | 0.339 | 0.346 | 0.249 | 0.297 | 0.32 | 0.441 | 0.628 | 0.538 | 0.515 | 0.764 | 0.479 | – | 0.891 | 1.04 | 0.7 |
| H3255 | 0.466 | 0.445 | 0.45 | 0.492 | 0.539 | 0.561 | 0.563 | 0.561 | 0.591 | 0.54 | 0.88 | 0.762 | 0.844 | 0.852 | 0.868 | 0.517 | 0.651 | 0.678 | 0.661 |
| NCI-H650 | 0.893 | 0.768 | 0.831 | 0.92 | 0.777 | 0.944 | 1.05 | 0.972 | 0.979 | 0.862 | 0.941 | 0.944 | 0.904 | 0.964 | 0.976 | – | 1.18 | 0.922 | 0.877 |
| NCI-H1944 | 0.335 | 0.339 | 0.361 | 0.342 | 0.335 | 0.609 | 0.697 | 0.571 | 0.646 | 0.632 | 0.844 | 0.819 | 0.873 | 0.746 | 0.612 | 0.649 | 0.783 | 0.74 | 0.58 |
